Laboratory results: patent US20260109709A1 (MIRATI THERAPEUTICS, INC., priority 2021, published 2026)
Counter-ions that a name gives are not always drawn. Like-named read-outs stand apart in the source and are kept apart here.

Target: T1, PRMT5/MEP50 complex (Homo sapiens, UniProt O14744)
T1 construct: purchased Reaction Biology Corporation
Test: PRMT5:MEP50 FlashPlate Assay (histone H4 peptide methylation)
Assay type: biochemical
Conditions: 40 nM H4 (1-15) peptide, 1 μM SAM
Method: The PRMT5 inhibitory activity of compounds of the present invention was determined using a PRMT5: MEP50 FlashPlate Assay and a PRMT5: MEP50 HotSpot Assay (Reaction Biology Corporation).
The assay uses purified human, PRMT5 enzyme to convert S-adenosyl-L-[methyl-3H]methionine plus histone H4 L-arginine to S-adenosyl-L-homocysteine plus histone H4 [methyl-3H]-L-arginine. The assay was carried out using Streptavidin-coated FlashPlates (Perkin Elmer), which contained a scintillant embedded in the plastic of the plate. The histone H4 peptide substrate was conjugated with biotin, which binds to the streptavidin-coated well of the plate, placing the H4 peptide in close proximity to the side well and the scintillant. The transfer of the tritiated methyl group from S-adenosyl-L-[methyl-3H]methionine to the bound histone H4 peptide generated a radiolabeled histone H4, which was quantitated by measuring in a scintillation counter to determine the activity of PRMT5 enzyme in the presence and absence of compound. […] Briefly, compounds of the present invention were solubilized in 100% DMSO at a highest concentration of 10 mM. […] Control samples lacking compound, PRMT5/MEP50 complex or various reaction components also were prepared and processed in parallel with compound test samples. SAH was used as a positive control for assay validation. To measure PRMT5 inhibitory activity, 3 nM PRMT5/MEP50 complex (Reaction Biology Corporation) was preincubated with test compound in assay buffer containing 40 nM histone H4 peptide (amino acids 1-15)-Biotin conjugate for 20 min at room temperature. The enzymatic reaction was initiated by adding 1 μM tritiated S-adenosyl methionine (final concentration) and the reaction is allowed to proceed for 20 min. The reaction was stopped and the amount of bound, tritiated H4 peptide in each sample was determined using a scintillation counter.

T1 sequence (O14744 2-637 limits assumed): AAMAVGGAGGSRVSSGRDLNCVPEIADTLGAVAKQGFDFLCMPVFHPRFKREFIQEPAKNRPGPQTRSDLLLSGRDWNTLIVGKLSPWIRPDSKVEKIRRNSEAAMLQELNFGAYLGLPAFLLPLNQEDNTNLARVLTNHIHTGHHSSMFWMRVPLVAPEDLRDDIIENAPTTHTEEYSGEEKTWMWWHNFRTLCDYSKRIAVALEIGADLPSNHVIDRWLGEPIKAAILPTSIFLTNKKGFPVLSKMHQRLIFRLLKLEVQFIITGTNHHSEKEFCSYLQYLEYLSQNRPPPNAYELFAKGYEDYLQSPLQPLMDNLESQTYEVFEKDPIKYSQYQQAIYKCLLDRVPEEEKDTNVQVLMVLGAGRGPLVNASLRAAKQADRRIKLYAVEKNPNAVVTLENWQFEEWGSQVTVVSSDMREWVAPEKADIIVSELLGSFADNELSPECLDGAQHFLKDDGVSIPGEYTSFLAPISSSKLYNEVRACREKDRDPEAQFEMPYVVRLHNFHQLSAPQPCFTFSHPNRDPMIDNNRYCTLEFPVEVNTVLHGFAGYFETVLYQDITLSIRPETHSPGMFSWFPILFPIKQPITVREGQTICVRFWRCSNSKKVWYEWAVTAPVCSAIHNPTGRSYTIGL
T1 sequence (Q9BQA1 2-342 partner limits assumed): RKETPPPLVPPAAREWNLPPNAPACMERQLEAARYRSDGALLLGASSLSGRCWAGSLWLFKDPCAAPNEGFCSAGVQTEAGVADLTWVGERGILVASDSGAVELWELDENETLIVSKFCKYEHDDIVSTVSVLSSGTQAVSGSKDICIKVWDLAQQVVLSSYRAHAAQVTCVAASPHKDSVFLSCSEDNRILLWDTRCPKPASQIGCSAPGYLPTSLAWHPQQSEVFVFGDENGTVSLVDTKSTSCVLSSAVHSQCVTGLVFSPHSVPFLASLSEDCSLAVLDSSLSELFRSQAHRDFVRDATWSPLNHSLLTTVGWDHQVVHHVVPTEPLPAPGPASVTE

Compound | IC50 (IC50 + 2 μM MTA, plus 2 μM MTA) [µM] | IC50 (absence of MTA, read-out: IC50) [µM]
CCO[C@@H]1COC[C@H]1Nc1cccc2c1nc(N)n2C (racemic) [Example 1-7, rac-N4-((3R,4S)-4-ethoxytetrahydrofuran-3-yl)-1-methyl-1H-benzo[d]imidazole-2,4-diamine] | > 300 | 
Cn1c(N)nc2c(NCCN3CC4CC4C3)cccc21 (centres unmarked) [Example 1-8, N4-(2-(3-azabicyclo[3.1.0]hexan-3-yl)ethyl)-1-methyl-1H-benzo[d]imidazole-2,4-diamine] | > 300 | 
Cn1c(N)nc2c(Nc3cnn(CCN4CCCC4=O)c3)cccc21 [Example 1-13, 1-(2-(4-((2-amino-1-methyl-1H-benzo[d]imidazol-4-yl)amino)-1H-pyrazol-1-yl)ethyl)pyrrolidin-2-one] | > 300 | 
Cn1c(N)nc2c(Nc3ccncc3)cccc21 [Example 1-31, 1-methyl-N4-(pyridin-4-yl)-1H-benzo[d]imidazole-2,4-diamine] | > 300 | 
Cn1c(N)nc2c(Nc3ccncn3)cccc21 [Example 1-32, 1-methyl-N4-(pyrimidin-4-yl)-1H-benzo[d]imidazole-2,4-diamine] | > 300 | 
Cc1nnc(CN(C)c2cccc3c2nc(N)n3C)n1C [Example 1-50, N4-((4,5-dimethyl-4H-1,2,4-triazol-3-yl)methyl)-N4,1-dimethyl-1H-benzo[d]imidazole-2,4-diamine] | > 300 | 
CN(Cc1nnc2n1CCOC2)c1cccc2c1nc(N)n2C [Example 1-51, N4-((5,6-dihydro-8H-[1,2,4]triazolo[3,4-c][1,4]oxazin-3-yl)methyl)-N4,1-dimethyl-1H-benzo[d]imidazole-2,4-diamine] | > 300 | 
Cn1c(N)nc2cc(-c3cncnc3)ccc21 [Example 1-52, 1-methyl-5-(pyrimidin-5-yl)-1H-benzo[d]imidazol-2-amine] | > 300 | 
Cn1c(N)nc2cc(-c3cccnc3)ccc21 [Example 1-54, 1-methyl-5-(pyridin-3-yl)-1H-benzo[d]imidazol-2-amine] | > 300 | 
Cc1ncccc1-c1ccc2c(c1)nc(N)n2C [Example 1-58, 1-methyl-5-(2-methylpyridin-3-yl)-1H-benzo[d]imidazol-2-amine] | > 300 | 
Cn1c(N)nc2cc(-c3cn[nH]c3)ccc21 [Example 1-60, 1-methyl-5-(1H-pyrazol-4-yl)-1H-benzo[d]imidazol-2-amine] | > 300 | 
Cn1c(N)nc2cc(-c3occc3C#N)ccc21 [Example 1-61, 2-(2-amino-1-methyl-1H-benzo[d]imidazol-5-yl)furan-3-carbonitrile] | 34.5 | 
Cn1c(N)nc2c(-c3cncnc3)cccc21 [Example 1-62, 1-methyl-4-(pyrimidin-5-yl)-1H-benzo[d]imidazol-2-amine] | > 300 | 
Cn1c(N)nc2c(-c3cccnc3)cccc21 [Example 1-64, 1-methyl-4-(pyridin-3-yl)-1H-benzo[d]imidazol-2-amine] | > 300 | 
Cn1c(N)nc2c(-c3ccccc3)cccc21 [Example 1-65, 1-methyl-4-phenyl-1H-benzo[d]imidazol-2-amine] | > 300 | 
Cn1c(N)nc2c(-c3ccncc3)cccc21 [Example 1-66, 1-methyl-4-(pyridin-4-yl)-1H-benzo[d]imidazol-2-amine] | > 300 | 
Cn1nccc1-c1cccc2c1nc(N)n2C [Example 1-67, 1-methyl-4-(1-methyl-1H-pyrazol-5-yl)-1H-benzo[d]imidazol-2-amine] | > 300 | 
Cn1ccc(-c2cccc3c2nc(N)n3C)n1 [Example 1-68, 1-methyl-4-(1-methyl-1H-pyrazol-3-yl)-1H-benzo[d]imidazol-2-amine] | > 300 | 
Cc1cc(-c2cccc3c2nc(N)n3C)cnc1O [Example 1-70, 5-(2-amino-1-methyl-1H-benzo[d]imidazol-4-yl)-3-methylpyridin-2-ol] | > 300 | 
Cn1cc(-c2cccc3c2nc(N)n3C)ccc1=O [Example 1-71, 5-(2-amino-1-methyl-1H-benzo[d]imidazol-4-yl)-1-methylpyridin-2(1H)-one] | > 300 | 

Compound | IC50 (IC50 + 2 μM MTA, plus 2 μM MTA) [µM] | IC50 (absence of MTA, read-out: IC50) [µM]
Cn1c(N)nc2c(-c3ccnnc3)cccc21 [Example 1-72] | > 300 | 
Cn1c(N)nc2cc(-c3ccnnc3)ccc21 [Example 1-73, 1-methyl-5-(pyridazin-4-yl)-1H-benzo[d]imidazol-2-amine] | > 300 | 
Cc1nn(C(C)C)cc1Nc1cccc2c1nc(N)n2C [Example 1-74, N4-(1-isopropyl-3-methyl-1H-pyrazol-4-yl)-1-methyl-1H-benzo[d]imidazole-2,4-diamine] | > 300 | 
Cn1c(N)nc2c(NCc3cn4cccc(F)c4n3)cccc21 [Example 1-75, N4-((8-fluoroimidazo[1,2-a]pyridin-2-yl)methyl)-1-methyl-1H-benzo[d]imidazole-2,4-diamine] | 180 | 
Cn1c(N)nc2c(Nc3cnccn3)cccc21 [Example 1-76, 1-methyl-N4-(pyrazin-2-yl)-1H-benzo[d]imidazole-2,4-diamine] | > 300 | 
Cn1c(N)nc2c(Nc3ncccn3)cccc21 [Example 1-78, 1-methyl-N4-(pyrimidin-2-yl)-1H-benzo[d]imidazole-2,4-diamine] | > 300 | 
Cn1c(N)nc2cc(Nc3cnccn3)ccc21 [Example 1-82, 1-methyl-N5-(pyrazin-2-yl)-1H-benzo[d]imidazole-2,5-diamine] | 50.7 | 
Cn1cc(-c2ccc(Cl)c3c2nc(N)n3C)cn1 [Example 2-1, 7-chloro-1-methyl-4-(1-methylpyrazol-4-yl)benzimidazol-2-amine hydrochloride] | > 300 | > 300
CN1C(=O)CCC1c1ccc(Cl)c2c1nc(N)n2C (centres unmarked) [Example 2-5, 5-(2-amino-7-chloro-1-methyl-benzimidazol-4-yl)-1-methyl-pyrrolidin-2-one hydrochloride] | > 300 | > 300
CN1CCOC(Cc2ccc(Cl)c3c2nc(N)n3C)C1 (centres unmarked) [Example 2-6, 7-chloro-1-methyl-4-[(4-methylmorpholin-2-yl)methyl]benzimidazol-2-amine] | > 300 | > 300
Cn1c(N)nc2c(-c3cnoc3)ccc(Cl)c21 [Example 2-7, 7-chloro-4-isoxazol-4-yl-1-methyl-benzimidazol-2-amine] | > 300 | > 300
Cn1c(N)nc2cc(Cc3ccncc3)cc(C#N)c21 [Example 3-4, 2-amino-3-methyl-6-(4-pyridylmethyl)benzimidazole-4-carbonitrile] | > 300 | > 300
Cn1c(N)nc2cc(C(F)(F)c3cccnc3)cc(C#N)c21 [Example 3-17, 2-amino-6-[difluoro (3-pyridyl)methyl]-3-methyl-benzimidazole-4-carbonitrile] | > 300 | > 300
Cn1nnc(CNc2cc(C#N)c3c(c2)nc(N)n3C)c1C(F)F [Example 3-23, 2-amino-5-(((5-(difluoromethyl)-1-methyl-1H-1,2,3-triazol-4-yl)methyl)amino)-1-methyl-1H-benzo[d]imidazole-7-carbonitrile] | 0.43 | 155
CCn1cnnc1CNc1cc(C#N)c2c(c1)nc(N)n2C [Example 3-24, 2-amino-5-(((4-ethyl-4H-1,2,4-triazol-3-yl)methyl)amino)-1-methyl-1H-benzo[d]imidazole-7-carbonitrile] | 0.73 | 280
CC(=O)N(Cc1cc(C#N)c2c(c1)nc(N)n2C)c1ccc2ccccc2c1C#N [Example 3-25, N-[(2-amino-7-cyano-1-methyl-benzimidazol-5-yl)methyl]-N-(1-cyano-2-naphthyl) acetamide] | 0.006 | 2.48
Cn1c(N)nc2cc(Cc3ccccn3)cc(C(F)F)c21 [Example 4-2, 7-(difluoromethyl)-1-methyl-5-(2-pyridylmethyl)benzimidazol-2-amine] | 122 | > 300
CCn1c(N)nc2ncccc21 [Example 5-1, 1-ethyl-1H-imidazo[4,5-b]pyridin-2-amine hydrochloride] | > 300 | > 300
Cn1c(N)nc2cc(Oc3cccnc3)cnc21 [Example 5-3, 3-methyl-6-(3-pyridyloxy) imidazo[4,5-b]pyridin-2-amine] | > 300 | > 300
CCc1cc(-c2cnn(C)c2-c2ccccc2C#N)c2nc(N)n(C)c2c1 [Example 6-3, 2-[4-(2-amino-6-ethyl-1-methyl-benzimidazol-4-yl)-2-methyl-pyrazol-3-yl]benzonitrile hydrochloride] | 17.8 | 198
